Converted amounts (≈) assume the structure as drawn.
How the values were obtained:
Bacillus subtillis = experiment: Minimal Inhibitory Concentration (MIC) test; format: cell-based; conditions: Gram positive
[1] = test system: Gram-negative bacterial pathogens (Burkholderia cenocepacia J2315, Burkholderia cenocepacia, Pseudomonas aeruginosa PAO1, Acinetobacter baumannii BAA-1793 and …); experiment: Minimal Inhibitory Concentration (MIC) test; format: cell-based
Description: Minimal Inhibitory Concentration (MIC) Test
The MIC test was performed by adding 2.0 mL of an antibiotic solution (100 ug/mL) to the first tube (out of, e.g., 9 tubes). 1.0 mL of sterile broth was added to all other tubes. 1.0 mL was transferred from the first tube to the second tube. Using a separate pipette, the contents of this tube were mixed and 1.0 mL was transferred to the third tube. Dilutions were continued in this manner through tube number 8. 1.0 mL was removed from tube 8 and discarded. […] Colonies of the culture were suspended to an appropriate turbidity to be tested in 5.0 mL of Mueller-Hinton broth to give a slightly turbid suspension. This suspension was diluted by aseptically pipetting 0.2 mL of the suspension into 40 mL of Mueller-Hinton broth. 1.0 mL of the diluted culture suspension was added to each of the tubes. The final concentration of the antibiotic was one-half of the original concentration in each tube. All tubes were incubated at 35° C. overnight. […]
Antibiotic activity, measured as MIC in μg/mL, of natural Mangrolide A and a synthetic Mangrolide A O-methyl ether derivative were compared against the following Gram-negative microbial pathogens: Burkholderia cenocepacia J2315, Burkholderia cenocepacia, Pseudomonas aeruginosa PAO1, Acinetobacter Baumannii BAA-1793, Acinetobacter baumannii BAA-1605, Escherichia coli (EHEC), and Klebsiella pneumoniae.

[2] = test system: S-30 extract from E. coli (30S ribosomal extract); experiment: Error frequency in vitro protein synthesis assay (amino acid misincorporation); format: biochemical; conditions: increasing concentrations (μM) of Mangrolide A, 14C-phenylalanine / 3H-leucine incorporation
Description: Error Frequency In Vitro Protein Synthesis Assay Using Natural mRNA
72 mM Tris-hydrochloride pH 7.5, 72 mM NH4Cl, 12 mM magnesium acetate, 2.4 mM dithiothreitol (Sigma Co.), 2 mM adenosine triphosphate (ATP), 0.1 mM guanosine triphosphate (GTP), 5 mM phosphoenolpyruvate (Sigma Co.), 20 ug of pyruvate kinase (Sigma Co.) per mL, a mixture of 19 amino acids (each at 72 uM), 13 uM [^14C]leucine (50 counts/min per picomole), 50 ug of calcium folinate (S.P.E.C.I.A., Paris, France) per mL, 0.2 mM DFP, and 0.6 mM Mg Titriplex in a final volume of 0.125 mL per tube. mRNA (1300 μg), an S-30 extract from E. coli (200 μg), or ribosomes plus S-150 (200 μg) and crude initiation factors were added. Incubations were for 30 minutes at 37° C. The extent of amino acid incorporation was determined by measuring the radioactivity remaining insoluble after treatment with hot trichloroacetic acid (90° C. for 15 min). To reduce endogenous mRNA, ribosomes plus 5-150 or S-30 extracts were preincubated just prior to use at 37° C. for 15 min in the reaction mixture described above without [^14C]leucine, the energy generating system and added mRNA.
Assay for Polyuridylic Acid [Poly(U)]-Directed-Polyphenylalanine Synthesis. […]

Staphyloccus aureus = experiment: Minimal Inhibitory Concentration (MIC) test; format: cell-based; conditions: Gram positive
[3] = test system: E. coli expressing neomycin phosphotransferase-1 (NPT); experiment: Poly(U)-directed polyphenylalanine synthesis, with or without neomycin phosphotransferase-1; format: cell-based; conditions: for antibiotic activity against E. coli expressing NPT: E. coli transformed with resistance plasmid expressing neomycin phosphotransferase-1
Description: Assay for Polyuridylic Acid [Poly(U)]-Directed-Polyphenylalanine Synthesis.
The reaction mixture contained 400 ug of E. coli B transfer RNA (General Biochemicals, Chagrin Falls, Ohio) per mL, 5 mM spermidine, and [^14C]leucine was replaced with 13 μM [^14C]phenylalanine ([…]). A poly(UUU) RNA template [5′-[…](UUU)12UAAGCAGG-3′ (SEQ ID NO: 1) was used at a concentration of 100 ug per assay. (Legault-Demare and Chambliss, Journal of Bacteriology, 1974, 120(3): 1300-1307).
The assay for polyuridylic acid [poly(U)]-directed-polyphenylalanine synthesis was conducted in the presence or absence of neomycin phosphotransferase-1 (NPT). Wild type E. coli and E. coli transformed with a resistance plasmid expressing neomycin phosphotransferase-1 (NPT) were treated with Mangrolide A and translational error frequency determined.

[4] = test system: 30S rRNA ribosomal mutant, A1408G; experiment: Error frequency assay with 30S rRNA ribosomal mutant; format: biochemical; conditions: increasing concentrations of Mangrolide A
Description: (§1) The error frequency assay was conducted to determine whether a 30S rRNA ribosomal mutant, A1408G is susceptible to Mangrolide A. The mutation site is shown in FIG. 8A. […] (FIG. 8B) When wild type or A1408G (S30) mutant bacteria were grown in wells of a microwell plate containing no additions (No—negative control), Ampicillin or Tetracyclin in the presence or absence of Mangrolide A, A1408G (S30) mutants proliferated similarly to the proliferation of wild type bacteria grown in the absence of Mangrolide A. (FIG. 8C).

[5] = test system: A1408G (S30) mutant bacteria; experiment: Growth of wild type or A1408G (S30) mutant bacteria in the presence of Mangrolide A; format: cell-based; conditions: grown with or without Mangrolide A, compared with wild type
Description: as §1

What does the source list for CC[C@H]1/C=C(\C)[C@@H](O)C/C=C/C=C(\CO)C(=O)O[C@H](C(C)C)C/C=C(C)/C=C(\C)[C@@H]1O[C@@H]1O[C@H](C)[C@@H](O[C@@H]2O[C@H](C)[C@@H](OC)[C@H](O)[C@H]2OC)[C@H](N(C)C)[C@H]1O [Mangrolide A, mangrolide A]?
MIC (Bacillus subtillis): > 32 µg/mL; antibiotic potency compared with the Mangrolide A O-methyl ether derivative ([1]; all Gram-negative bacteria tested): more potent antibiotic against all Gram-negative bacteria tested; MIC range ([1]; range over the Gram-negative bacterial pathogens tested): 0.25 to 1 µg/mL; misincorporation of amino acids during protein synthesis [2]: increased misincorporation of amino acids; misincorporation of amino acids during protein synthesis ([2]; listed as mangrolide): induces misincorporation of amino acids; MIC (Staphyloccus aureus): 32 µg/mL (≈ 41 µM); antibiotic activity against E. coli expressing NPT [3]: inactivated by the expressed neomycin phosphotransferase-1 activity; antibiotic activity against E. coli expressing NPT ([3]; listed as mangrolide): inactivated by neomycin phosphotransferase-1; translational error frequency in E. coli expressing NPT ([3]; grown in the presence of Mangrolide A): error frequency comparable to wild type E. coli; misincorporation of amino acids with A1408G mutant [4]: limited misincorporation was induced; susceptibility of A1408G mutant bacteria (growth) [5]: A1408G mutant is resistant; susceptibility of A1408G mutant bacteria (growth) ([5]; listed as mangrolide): A1408G mutant strain was able to grow on plates with mangrolide, unlike the wildtype

— US20150329582A1, “SMALL MOLECULE COMPOUNDS SELECTIVE AGAINST GRAM-NEGATIVE BACTERIAL INFECTIONS” (priority 2014, published 2015)
